Experimental data as given in patent publication US20200339544A1 (JOINT STOCK COMPANY "BIOCAD", priority 2017, published 2020).
Structures can show the parent of a compound that is named as a salt.

Tests used:
[1] = Chemical stability in simulated gastric fluid (SGF); assay type: physicochemical; conditions: SGF without enzymes, pH 1,4; 10 μm; 2 hours at 37° C.; substance amount remaining
Outline: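 Compound at 10 μm (diluted from 10 mM DMSO stock) incubated 2 h at 37° C in enzyme-free SGF, pH=1,4, or enzyme-free SIF, pH=6.5. HPLC peak areas before and after incubation give % compound remaining.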

[2] = target: T1, DM EGFR (DoubleMutantEGFR, L828R/T790M) (Homo sapiens, UniProt P00533, L858R/T790M); assay: Inhibition of DM EGFR kinase activity (ADP-Glo); assay type: biochemical; conditions: for IC50: inhibition of kinase activity, EGFR DM (L828R/T790M); for SI, IC50(WT)/IC50(DM): selectivity index, kinase EGFR WT vs EGFR DM
T1 construct: purchased SignalChem
Outline: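 Luminescent ADP-Glo readout was used for both wild-type and L858R/T790M EGFR, each run 180 minutes at 37° C. Reactions used a solution of 50 μM ATP with 0.5 mg/mL peptide substrate. Four-parameter logistic curves gave IC50.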

[3] = tested on: A549 (lung adenocarcinoma, WT); assay: Antiproliferative activity on A549 cells (Alamar Blue); assay type: cell-based; conditions: Homo sapiens, antiproliferative test
Outline: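 Viability read by Alamar Blue fluorescence (λEx 540, λEm 590 nm) 3-5 h after dye addition, following 72 h compound treatment at 37° C in 2% FBS RPMI-1640, ≤1% DMSO. Seeding 5*10^3 cells/well, 16-18 h attachment. Four-parameter logistic model gave IC50.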

Row | Compound | Stability in SGF, % [1] | IC50 [2] | SI, IC50(WT)/IC50(DM) [2] | IC50 [3]
1 | C=CC(=O)Nc1cc(Nc2cc(C(=O)c3ccc(OC)cc3)ccn2)c(OC)cc1N(C)CCN(C)C [EGFR_3365_51, N-(2-((2-(dimethylamino)ethyl)(methyl)amino)-4-methoxy-5-((4-(4-methoxybenzoyl)pyridin-2-yl)amino)phenyl)acrylamide] | 100.0% | 4.72 nM | 10.75 | 11500 nM
2 | C=CC(=O)Nc1cc(Nc2nccc(C(=O)c3ccc(OCCCC)cc3)n2)c(OC)cc1N(C)CCN(C)C [EGFR_3365_66, N-(5-((4-(4-butoxybenzoyl)pyrimidin-2-yl)amino)-2-((2-(dimethylamino)ethyl)(methyl)amino)-4-methoxyphenyl)acrylamide] | 100.0% | 1.86 nM | 25.13 | 4640 nM
3 | C=CC(=O)Nc1cc(Nc2nccc(C(=O)c3ccc(OCCC)cc3OCCC)n2)c(OC)cc1N(C)CCN(C)C [EGFR_3365_70, N-(2-((2-(dimethylamino)ethyl)(methyl)amino)-5-((4-(2,4-dipropoxybenzoyl)pyrimidin-2-yl)amino)-4-methoxyphenyl)acrylamide] | 100.0% | 14.7 nM | 16.96 | 4390 nM
4 | C=CC(=O)Nc1cc(Nc2nccc(C(=O)c3ccc(N(CC)CC)cc3)n2)c(OC)cc1N(C)CCN(C)C [EGFR_3365_72, N-(5-((4-(4-(diethylamino)benzoyl)pyrimidin-2-yl)amino)-2-((2-(dimethylamino)ethyl)(methyl)amino)-4-methoxyphenyl)acrylamide] | 100.0% | 3.71 nM | 15.09 | 10700 nM
5 | C=CC(=O)Nc1cc(Nc2nccc(C(=O)c3ccc(N4CC(OC)C4)cc3)n2)c(OC)cc1N(C)CCN(C)C [EGFR_3365_61, N-(2-((2-(dimethylamino)ethyl)(methyl)amino)-4-methoxy-5-((4-(4-(3-methoxyazetidin-1-yl)benzoyl)pyrimidin-2-yl)amino)phenyl)acrylamide] | 100.0% | 2.76 nM | 19.27 | 23400 nM
6 | C=CC(=O)Nc1cc(Nc2cc(C(=O)c3ccc(-c4cnn(C)c4)cc3)ccn2)c(OC)cc1N(C)CCN(C)C [EGFR_3365_85, N-(2-((2-(dimethylamino)ethyl)(methyl)amino)-4-methoxy-5-((4-(4-(1-methyl-1H-pyrazol-4-yl)benzoyl)pyridin-2-yl)amino)phenyl) acrylamide] | 100.0% | 8.36 nM | 7.17 | 1410 nM
7 | C=CC(=O)Nc1cc(Nc2nccc(C(=O)c3ccc(OC(C)C)cc3)n2)c(OC)cc1N(C)CCN(C)C [EGFR_3365_31, N-(2-((2-(dimethylamino)ethyl)(methyl)amino)-5-((4-(4-isopropoxybenzoyl)pyrimidin-2-yl)amino)-4-methoxyphenyl) acrylamide] | 100.0% | 8.65 nM | 15.12 | 11100 nM
8 | C=CC(=O)Nc1cc(Nc2nccc(C(=O)c3ccccc3C(F)(F)F)n2)c(OC)cc1N(C)CCN(C)C [EGFR_3365, N-(2-((2-(dimethylamino)ethyl) (methyl)amino)-4-methoxy-5-((4-(2-(trifluoromethyl)benzoyl)pyrimidin-2-yl)amino)phenyl)acrylamide] | 100.0% | 22 nM | 26.69 | > 10000 nM
9 | C=CC(=O)Nc1cc(Nc2nccc(C(=O)c3ccc(N4CCCC4)cc3)n2)c(OC)cc1N(C)CCN(C)C [EGFR_3365_63, N-(2-((2-(dimethylamino)ethyl)(methyl)amino)-4-methoxy-5-((4-(4-(pyrrolidin-1-yl)benzoyl)pyrimidin-2-yl)amino)phenyl)acrylamide] | 100.0% | 0.94 nM | 24.32 | 10800 nM
10 | C=CC(=O)Nc1cc(Nc2nccc(C(=O)c3ccc(N4CCN(C)CC4)cc3)n2)c(OC)cc1N(C)CCN(C)C [EGFR_3365_62, N-(2-((2-(dimethylamino)ethyl)(methyl)amino)-4-methoxy-5-((4-(4-(4-methylpiperazin-1-yl)benzoyl)pyrimidin-2-yl)amino)phenyl)acrylamide formate] | 100.0% | 6.58 nM | 19.37 | 12300 nM
11 | C=CC(=O)Nc1cc(Nc2nccc(C(=O)c3ccc(F)cc3)n2)c(OC)cc1N(C)CCN(C)C [EGFR_3365_10, N-(2-((2-(dimethylamino)ethyl)(methyl)amino)-5-((4-(4-fluorobenzoyl)pyrimidin-2-yl)amino)-4-methoxyphenyl) acrylamide] | 100.0% | 7.28 nM | 29.06 | 13200 nM
12 | C=CC(=O)Nc1cc(Nc2nccc(C(=O)c3ccc(OCc4ccccc4)cc3)n2)c(OC)cc1N(C)CCN(C)C [EGFR_3365_16, N-(5-((4-(4-(benzyloxy)benzoyl)pyrimidin-2-yl)amino)-2-((2-(dimethylamino)ethyl)(methyl)amino)-4-methoxyphenyl)acrylamide] | 100.0% | 32.8 nM | 4.70 | 2210 nM
13 | C=CC(=O)Nc1cc(Nc2nccc(C(=O)c3ccccc3Br)n2)c(OC)cc1N(C)CCN(C)C [EGFR_3365_12, N-(5-((4-(2-bromobenzoyl)pyrimidin-2-yl)amino)-2-((2-(dimethylamino)ethyl) (methyl)amino)-4-methoxyphenyl)acrylamide] | 100.0% | 25.5 nM | 15.25 | 15400 nM
14 | C=CC(=O)Nc1cc(Nc2cc(C(=O)c3ccc(N(C)C)cc3)ccn2)c(OC)cc1N(C)CCN(C)C.O=C(O)C(F)(F)F [EGFR_3365_4, N-(5-((4-(4-(dimethylamino)benzoyl)pyridin-2-yl)amino)-2-((2-(dimethylamino)ethyl) (methyl)amino)-4-methoxyphenyl)acrylamide 2,2,2-trifluoroacetate] | 100.0% | 21.4 nM | 10.79 | 5380 nM
15 | C=CC(=O)Nc1cc(Nc2cc(C(=O)c3ccc(OCC)cc3)ccn2)c(OC)cc1N(C)CCN(C)C [EGFR_3365_52, N-(2-((2-(dimethylamino)ethyl)(methyl)amino)-5-((4-(4-ethoxybenzoyl)pyridin-2-yl)amino)-4-methoxyphenyl) acrylamide] | 100.0% | 6.41 nM | 10.58 | 10800 nM
